In US20080312309A1, “CONTROLLED RELEASE ORAL FORMULATIONS OF ION CHANNEL MODULATING COMPOUNDS AND RELATED METHODS FOR PREVENTING ARRHYTHMIA” (priority 2007, published 2008):
Marks after values point to notes of the source that are not given here.

Assay: Disposition and mass balance of 14C-vernakalant hydrochloride after single IV and oral doses in CYP2D6 EMs and PMs
Type: in vivo, human
Settings: for AUC0-∞ / Cmax / Tmax / t1/2: plasma, single 240-mg dose
Text: This phase 1 study used an open-label, single-sequence, crossover design. […] The specific activity of the administered dose was 0.329 μCi/mg, yielding a total radioactive dose of 78.96 μCi. Participants remained confined to the center for 7 days after drug administration to ensure collection of urine and fecal samples for recovery of radioactivity. After an additional 2-week follow-up as outpatients, the cohort returned to the center 3 weeks after each dose (i.e., days 21 and 42) for end-of-study assessments.
Additional samples were obtained 5 minutes into the IV infusion and at its end.
Urine and fecal specimens were also collected at the end-of-study assessment. Saliva for ^14C analysis was obtained before dosing, 0.25, 0.5, 2, and 8 hours afterward, and on occurrence of any treatment-related adverse event related to dysgeusia. Vomitus for ^14C analysis was collected at any time over the 7 days after oral administration when vomiting occurred.
Adverse events were evaluated daily, classified by intensity and association with treatment, and coded according to the MedDRA dictionary version 6.1. Vital signs, physical examination, 12-lead electrocardiograph (ECG), and laboratory tests including clinical chemistry, hematology, and urinalysis were evaluated at screening, 7 days after dosing, and at the end-of-study assessment. […] In addition, vital signs and 12-lead ECG were obtained 15 minutes before dosing; the vital signs assessment was repeated 15, 30, 60, and 90 minutes after dosing and then daily for 7 days.
Plasma samples first underwent solid-phase extraction on SPE cartridges containing a 30-mg MCX phase (Waters, Milford, Mass.); urine samples were analyzed directly. For the determination of glucuronide and sulphate conjugates, plasma and urine samples underwent an enzymatic deconjugation with a solution of β-glucuronidase (5000 units/mL in 0.1 M sodium acetate buffer pH 5.0) and were incubated for 30 hours (plasma) or 20 hours (urine) at 37° C. Subsequently, the urine samples were injected directly on to the column and the plasma samples were further treated with SPE as described above. […] The other part of the LC column effluent was directed to model API 3000 MS (MDX Sciex, Concord, Canada) with ionspray detection for structural confirmation and identification.
Pharmacokinetic values were analyzed using noncompartmental analysis by means of WinNonlin version 5.0 (Pharsight Corp, Mountain View, Calif.). […] Oral bioavailability (F) was determined from the ratio of AUC0-∞ after oral dosing to AUC0-∞ after IV dosing, and was used to calculate the oral clearance (CL/F), Vdz after oral dosing (Vdz/F), and Vss after oral dosing (Vss/F).
The amount of these analytes excreted in urine was calculated according to time period and cumulatively over the 7 days. Total ^14C in urine and feces (and vomitus, if applicable) was also determined by time and cumulatively over the study for the mass-balance estimation.
Concentrations below the lower limit of quantitation were set to 0. […] Safety parameters were summarized descriptively for the entire cohort.

[1] = IV infusion of 14C-vernakalant, EMs (n = 5)
[2] = IV infusion of 14C-vernakalant, PMs (n = 2)
[3] = oral administration of 14C-vernakalant, EMs (n = 5)
[4] = oral administration of 14C-vernakalant, PMs (n = 2)
[5] = oral administration, EMs (n = 5)
[6] = oral administration, PMs (n = 2)
[7] = IV infusion, EMs (n = 5), listed as Compound 2G

| Cumulative Amount Excreted in Urine During the 7 Days After Administration [1] | Cumulative Amount Excreted in Urine During the 7 Days After Administration [2] | Cumulative Amount Excreted in Urine During the 7 Days After Administration [3] | Cumulative Amount Excreted in Urine During the 7 Days After Administration [4] | AUC0-∞ (IV infusion, EMs (n = 5)) | Cmax (IV infusion, EMs (n = 5)) | Tmax (IV infusion, EMs (n = 5)) | t1/2 (IV infusion, EMs (n = 5)) | AUC0-∞ (IV infusion, PMs (n = 2)) | Cmax (IV infusion, PMs (n = 2)) | Tmax (IV infusion, PMs (n = 2)) | t1/2 (IV infusion, PMs (n = 2)) | AUC0-∞ [5] | Cmax [5] | Tmax [5] | t1/2 [5] | AUC0-∞ [6] | Cmax [6] | Tmax [6] | t1/2 [6] | SMILES | other results |
| --- | --- | --- | --- | --- | --- | --- | --- | --- | --- | --- | --- | --- | --- | --- | --- | --- | --- | --- | --- | --- | --- |
| 8.91 ± 2.86 mg | 44.22 ± 15.10 mg | 11.31 ± 6.48 mg | 50.20 ± 14.99 mg | 1791 ± 764.1 ng·h/mL | 455.6 ± 118.9 ng/mL | 0.48 ± 0.13 h | 2.76 ± 0.65 h | 8074 ± 118.6 ng·h/mL | 942.0 ± 213.5 ng/mL | 1.67 ± 0.71 h | 6.58 ± 2.59 h | 2076 ± 809.3 ng·h/mL | 496.0 ± 158.5 ng/mL | 1.80 ± 0.45 h | 2.57 ± 0.41 h | 7759 ± 1252 ng·h/mL | 1078 ± 297.7 ng/mL | 1.38 ± 0.88 h | 4.32 ± 0.27 h | COc1ccc(CCO[C@@H]2CCCC[C@H]2N2CC[C@@H](O[C@@H]3O[C@H](C(=O)O)[C@@H](O)[C@H](O)[C@H]3O)C2)cc1OC [Vernakalant glucuronide] | AUC0-∞, times higher in PMs than EMs (plasma metabolite): approximately 4 times |
| 120.01 ± 19.03 mg | 11.36 ± 5.52 mg | 121.76 ± 44.38 mg | 12.03 ± 0.51 mg | 20,711 ± 2708 ng · h/mL | 3489 ± 371.4 ng/mL | 1.44 ± 0.69 h | 3.29 ± 0.21 h | 1933 ± 360.0 ng·h/mL | 180.5 ± 48.8 ng/mL | 2.17 ± 0.0 h | 5.59 ± 0.73 h | 21,182 ± 3137 ng · h/mL | 3824 ± 349.3 ng/mL | 2.4 h | 3.2 h | 2025 ± 65.9 ng·h/mL | 230.5 ± 4.99 ng/mL | 2.00 ± 0.0 h | 5.01 ± 0.49 h | COc1cc(CCO[C@@H]2CCCC[C@H]2N2CC[C@@H](O)C2)ccc1OC1OC(C(=O)O)C(O)C(O)C1O (stereo partly drawn) [Compound 2 glucuronide] | mean AUC0-∞, times higher in EMs than in PMs (plasma metabolite): 10 times; Tmax [7]: 1.4 h; t1/2 [7]: 3.3 h |
| 3.11 ± 0.85 mg | 0.48 ± 0.02 mg | 3.88 ± 1.14 mg | 0.62 ± 0.19 mg | 202.5 ± 66.6 ng·h/mL | 68.6 ± 18.0 ng/mL |  | 2.28 ± 0.29 h |  | 3.31 ± 4.67 ng/mL |  |  | 225.2 ± 76.8 ng·h/mL | 63.2 ± 21.9 ng/mL |  | 2.19 ± 0.29 h |  | 6.25 ± 8.84 ng/mL |  |  | COc1cc(CCO[C@@H]2CCCC[C@H]2N2CC[C@@H](O)C2)ccc1O [Compound 2] |  |

| SMILES | Cumulative Amount Excreted in Urine During the 7 Days After Administration [1] | Cumulative Amount Excreted in Urine During the 7 Days After Administration [2] | Cumulative Amount Excreted in Urine During the 7 Days After Administration [3] | Cumulative Amount Excreted in Urine During the 7 Days After Administration [4] | AUC0-∞ (IV infusion, EMs (n = 5)) | Cmax (IV infusion, EMs (n = 5)) | Tmax (IV infusion, EMs (n = 5)) | t1/2 (IV infusion, EMs (n = 5)) | AUC0-∞ (IV infusion, PMs (n = 2)) | Cmax (IV infusion, PMs (n = 2)) | Tmax (IV infusion, PMs (n = 2)) | t1/2 (IV infusion, PMs (n = 2)) | AUC0-∞ [5] | Cmax [5] | Tmax [5] | t1/2 [5] | AUC0-∞ [6] | Cmax [6] | Tmax [6] | t1/2 [6] | other results |
| --- | --- | --- | --- | --- | --- | --- | --- | --- | --- | --- | --- | --- | --- | --- | --- | --- | --- | --- | --- | --- | --- |
| COc1ccc(CCO[C@@H]2CCCC[C@H]2N2CC[C@@H](O)C2)cc1O [Compound 3] | 0.04 ± 0.02 mg | 0.16 ± 0.12 mg | 0.05 ± 0.03 mg | 0.12 ± 0.05 mg |  | 2.85 ± 3.94 ng/mL | 0.34 ± 0.12 h |  |  | 3.72 ± 5.26 ng/mL | 0.42^† h |  |  | 1.41 ± 3.16 ng/mL | 0.77^† h |  |  | 9.08 ± 2.16 ng/mL | 1.25 ± 1.06 h |  | detectability in plasma (after vernakalant hydrochloride dosing): not detectable in plasma at most time points |
